{"source": "patent US11259516B2", "about": "“Method and apparatus for capsular delivery to plants” (priority 2017, dated 2022)", "key": {"[1]": {"test_system": "Cestrum parqui (Green cestrum)", "parameters": "key: X indicates that the given herbicide is suitable for controlling the given weed", "conditions": "cited from earlier work"}, "[2]": {"test_system": "Ligustrum sinense (Chinese privet)", "parameters": "key: X indicates that the given herbicide is suitable for controlling the given weed", "conditions": "cited from earlier work"}, "[3]": {"test_system": "Crataegus sinaica (Azarola)", "parameters": "key: X indicates that the given herbicide is suitable for controlling the given weed", "conditions": "cited from earlier work"}, "[4]": {"test_system": "Eucalyptus saligna (Sydney Blue Gum)", "assay": "Case 2: thinning of plantation grown Eucalyptus saligna with Di-Bak G, field trial", "type": "in vivo", "conditions": "at four months, on average a capsule every 13-14 cm of stem circumference", "method": "Generally, one capsule was inserted per 10 cm stem circumference.\nTree health was assessed on a 0-4 scale, 0 being dead and 4 being healthy. Observations were made for evidence of ‘flashback’ in nearby untreated trees.\nA trial was established on Brooklyn Station, Upper Tooloom, near Urbenville on 25 May 2017. GPS co-ordinates of the first treated plot were S28° 32.486′ E152° 24.782′. […] Trees were 6-10 m tall. Desirable trees were marked and the other trees were treated.\nThe trial consisted of four replicates with 15 trees per replicate. The number of capsules applied to each tree was dependent on tree circumference which was measured at chest height. The tree circumferences range was from 18 to 57 cm. Tree health was assessed at 4 months (25 Aug. 2017) and 7 months (20 Dec. 2017). Samples were collected for observation of dissolution of capsule and herbicide. Rainfall data for the closest recording station (Urbenville) was taken from the Bureau of Meteorology (BOM) internet site. No recent temperature data records were available for this site."}, "[5]": {"test_system": "Rubus anglocandicans (Blackberry)", "parameters": "key: X indicates that the given herbicide is suitable for controlling the given weed", "conditions": "cited from earlier work"}, "[6]": {"test_system": "Olea europea sbsp africana (African olive)", "parameters": "key: X indicates that the given herbicide is suitable for controlling the given weed", "conditions": "cited from earlier work"}, "Acer negudo (Box elder)": {"test_system": "Acer negudo (Box elder)", "parameters": "key: X indicates that the given herbicide is suitable for controlling the given weed", "conditions": "cited from earlier work"}, "[7]": {"test_system": "Ligustrum lucidum (Broad leaf privet)", "parameters": "key: X indicates that the given herbicide is suitable for controlling the given weed", "conditions": "cited from earlier work"}, "[8]": {"test_system": "western white gum (Eucalyptus argophloia)", "assay": "Example 3: glyphosate and glyphosate+imazapyr capsules, thinning trial in western white gum plantation", "method": "The trial was established at the HQP plantation near Jandowae on 6 Feb. 2018. The trees were planted in rows 4 m apart at 1.5 m spacing. Trees were 6-10 m tall. Trees to be maintained were marked and the other trees were treated.\n(§1) Four treatments were used, with capsules as follows:\nCapsules and applicator used were as described in Example 2.\n(§2) Herbicide capsules were applied to approx. 10 trees for each of the treatments. The number of capsules applied to each tree was independent of tree circumference which was measured at chest height. The tree circumferences range was from 12 to 25 centimetres. At 4 weeks, a small sample of trees were cut down with a chainsaw and cross-sections of stems containing the sites of insertion of the herbicide capsules removed. These stem pieces were returned to the laboratory and split open longitudinally through the insertion point. Tree health was assessed at 11 weeks (24 Apr. 2018) on a 0-4 scale with 0 being dead and 4 being healthy. Observations were made for evidence of flashback in untreated trees."}, "Salix species (Willows)": {"test_system": "Salix species (Willows)", "parameters": "key: X indicates that the given herbicide is suitable for controlling the given weed", "conditions": "cited from earlier work"}, "Populus spp (Poplars)": {"test_system": "Populus spp (Poplars)", "parameters": "key: X indicates that the given herbicide is suitable for controlling the given weed", "conditions": "cited from earlier work"}, "[9]": {"test_system": "Erythrina sykesii (Coral tree)", "parameters": "key: X indicates that the given herbicide is suitable for controlling the given weed", "conditions": "cited from earlier work"}, "[10]": {"test_system": "Erythrina crista-galli (Cockspur coral tree)", "parameters": "key: X indicates that the given herbicide is suitable for controlling the given weed", "conditions": "cited from earlier work"}, "[11]": {"test_system": "Schinus terebinthifolius (Broad-leafed pepper tree)", "parameters": "key: X indicates that the given herbicide is suitable for controlling the given weed", "conditions": "cited from earlier work"}, "Lantana camara (Lantana)": {"test_system": "Lantana camara (Lantana)", "parameters": "key: X indicates that the given herbicide is suitable for controlling the given weed", "conditions": "cited from earlier work"}, "[12]": {"test_system": "western white gum (Eucalyptus argophloia)", "assay": "Example 2: glyphosate and hexazinone capsules, thinning trial in western white gum plantation", "conditions": "Eucalyptus argophloia", "method": "The trial for this example was established at the HQP plantation near Jandowae on 6 Feb. 2018. The trees were planted in rows 4 m apart at 1.5 m spacing. Trees were 6-10 m tall. Trees to be maintained were marked and the other trees were treated.\nas §1\nThe capsules used were HPMC Size 0 Natural TR.V700 colour cap and body Vcaps (Suzhou Capsugel® Ltd, China). Capsules were hand packed using a Capsugel Profiller apparatus (https://www.capsugel.com/biopharmaceutical-products/profiller). An embodiment of apparatus 10 adapted to include handle 2201 (FIG. 17) was used to drill a hole into the stem, insert the herbicide capsule and seal with a wooden plug.\nas §2, with “approximately” for “approx.”, “20” for “12”, “34” for “25”"}, "[13]": {"test_system": "Cinnamonum camphora (Camphor laurel)", "parameters": "key: X indicates that the given herbicide is suitable for controlling the given weed", "conditions": "cited from earlier work"}, "[14]": {"test_system": "Leptospermum spp. (Tea trees)", "parameters": "key: X indicates that the given herbicide is suitable for controlling the given weed", "conditions": "cited from earlier work"}, "[15]": {"test_system": "Pittosporum undulatum (Sweet pittosporum)", "parameters": "key: X indicates that the given herbicide is suitable for controlling the given weed", "conditions": "cited from earlier work"}, "[16]": {"test_system": "Solanum mauritianum (Wild tobacco tree)", "parameters": "key: X indicates that the given herbicide is suitable for controlling the given weed", "conditions": "cited from earlier work"}, "[17]": {"test_system": "Cascabela thevetia (Yellow oleander)", "parameters": "key: X indicates that the given herbicide is suitable for controlling the given weed", "conditions": "cited from earlier work"}, "[18]": {"test_system": "Harungana madagarcariensis (Harungana)", "parameters": "key: X indicates that the given herbicide is suitable for controlling the given weed", "conditions": "cited from earlier work"}, "[19]": {"conditions": "11 weeks post treatment, 1 or 2 capsules per tree"}}}
{"molecule": "O=C(O)CNCP(=O)(O)O", "note": "[Glyphosate]", "values": [{"measurement": "suitability of herbicide for control of weed", "setting": "[1]", "value": "X"}, {"measurement": "suitability of herbicide for control of weed", "setting": "[2]", "value": "X"}, {"measurement": "suitability of herbicide for control of weed", "setting": "[3]", "value": "X"}, {"measurement": "mortality", "setting": "[4]", "value": "over 90%"}, {"measurement": "suitability of herbicide for control of weed", "setting": "[5]", "value": "X"}, {"measurement": "suitability of herbicide for control of weed", "setting": "[6]", "value": "X"}, {"measurement": "suitability of herbicide for control of weed", "setting": "Acer negudo (Box elder)", "value": "X"}, {"measurement": "suitability of herbicide for control of weed", "setting": "[7]", "value": "X"}, {"measurement": "flashback in the trees marked for retention", "setting": "[8]; 11 week assessment", "value": "no flashback was observed"}, {"measurement": "trees died (health rating 0-4 scale, 0 dead)", "setting": "[8]; [19]", "value": "majority of trees"}, {"measurement": "suitability of herbicide for control of weed", "setting": "Salix species (Willows)", "value": "X"}, {"measurement": "suitability of herbicide for control of weed", "setting": "Populus spp (Poplars)", "value": "X"}, {"measurement": "suitability of herbicide for control of weed", "setting": "[9]", "value": "X"}, {"measurement": "suitability of herbicide for control of weed", "setting": "[10]", "value": "X"}, {"measurement": "suitability of herbicide for control of weed", "setting": "[11]", "value": "X"}, {"measurement": "suitability of herbicide for control of weed", "setting": "Lantana camara (Lantana)", "value": "X"}, {"measurement": "flashback in the trees marked for retention", "setting": "[12]; 11 week assessment", "value": "no flashback was observed"}, {"measurement": "trees died / killed (health rating 0-4 scale, 0 dead)", "setting": "[12]; [19]", "value": "majority of trees"}, {"measurement": "suitability of herbicide for control of weed", "setting": "[13]", "value": "X"}, {"measurement": "suitability of herbicide for control of weed", "setting": "[14]", "value": "X"}, {"measurement": "suitability of herbicide for control of weed", "setting": "[15]", "value": "X"}, {"measurement": "suitability of herbicide for control of weed", "setting": "[16]", "value": "X"}, {"measurement": "suitability of herbicide for control of weed", "setting": "[17]", "value": "X"}, {"measurement": "suitability of herbicide for control of weed", "setting": "[18]", "value": "X"}]}
